Data on four molecules can be found in ChEMBL document CHEMBL5331046, “Disulfiram and dithiocarbamate analogues demonstrate promising antischistosomal effects” (Eur J Med Chem, 2022).

Calls of active or inactive are those of the source. No cut-off for these calls is given here.

The subject of one data set is HepG2. Briefly: Cytotoxicity against human HepG2 cells assessed as reduction in cell vaibility at 100 uM by WST-1 assay. The data set is classed as toxicity, cell-based. The conditions noted are these: hepg2, 100 µM. Background: Tetrazolium assays rely on reduction of a dye to a coloured formazan, in cell work by metabolically active cells.
Data set [1] concerns Schistosoma mansoni. In words: Antischistosomal activity against Schistosoma mansoni couples at 100 uM measured upto 72 hrs by bright field microscopy. In kind it is functional, organism-based.
Data set [2] has as its system Schistosoma mansoni. Briefly: Antischistosomal activity against Schistosoma mansoni couples assessed as gut dilations at 25 uM measured upto 72 hrs by bright field microscopy. In kind it is functional, organism-based.
Data set [3] deals with Schistosoma mansoni. Briefly: Antischistosomal activity against Schistosoma mansoni couples assessed as tissue structural changes at 25 uM measured upto 72 hrs by bright field microscopy. In kind it is functional, organism-based.
For another data set, the system named is LS174T. Briefly: Cytotoxicity against human LS174T cells assessed as reduction in cell viability at 100 uM by WST-1 assay. The data set is classed as toxicity, cell-based.
The test system of data set [4] is Schistosoma mansoni. In words: Antischistosomal activity against Schistosoma mansoni couples assessed as couple separation at 25 uM measured upto 72 hrs by bright field microscopy. The data set is classed as functional, organism-based.
In data set [5] the test system is Schistosoma mansoni. In words: Antischistosomal activity against Schistosoma mansoni couples assessed as decrease in parasite vitality at 25 uM measured upto 72 hrs by bright field microscopy. In kind it is functional, organism-based.
The subject of data set [6] is Schistosoma mansoni. Briefly: Antischistosomal activity against Schistosoma mansoni couples assessed as decrease in parasite motility at 25 uM measured upto 72 hrs by bright field microscopy. Further details: scale not given: the % may be the effect or the level left. The data set is classed as functional.
Data set [7] has as its system Schistosoma mansoni. In words: Antischistosomal activity against Schistosoma mansoni couples assessed as inhibition of eggs production at 25 uM measured upto 72 hrs by bright field microscopy. In kind it is functional.
In data set [8] the test system is Schistosoma mansoni. Briefly: Antischistosomal activity against Schistosoma mansoni female worm assessed as gut dilatations at 10 uM measured upto 72 hrs by bright field microscopy. In kind it is functional, organism-based.
Data set [9] concerns Schistosoma mansoni. Briefly: Antischistosomal activity against Schistosoma mansoni couples assessed as couple separation at 100 uM measured upto 72 hrs by bright field microscopy. The data set is classed as functional, organism-based.
For data set [10], the system named is Schistosoma mansoni. Briefly: Antischistosomal activity against Schistosoma mansoni male worm assessed as tegument damage at 100 uM measured upto 72 hrs by bright field microscopy. In kind it is functional, organism-based.
Data set [11] concerns Schistosoma mansoni. In words: Antischistosomal activity against Schistosoma mansoni female worm assessed as tegument damage at 100 uM measured upto 72 hrs by bright field microscopy. In kind it is functional, organism-based.
The subject of data set [12] is Schistosoma mansoni. In words: Antischistosomal activity against Schistosoma mansoni couples assessed as lethality to parasites at 50 uM measured upto 72 hrs by bright field microscopy. In kind it is functional, organism-based.
Data set [13] concerns Schistosoma mansoni. In words: Antischistosomal activity against Schistosoma mansoni couples assessed as decrease in parasite vitality at <=25 uM measured upto 72 hrs by bright field microscopy. The data set is classed as functional, organism-based.
For data set [14], the system named is Schistosoma mansoni. Briefly: Antischistosomal activity against Schistosoma mansoni couples assessed as inhibition of eggs production at <=25 uM measured upto 72 hrs by bright field microscopy. In kind it is functional, organism-based.
Data set [15] concerns Schistosoma mansoni. In words: Antischistosomal activity against Schistosoma mansoni female worm assessed as gut dilatations at 100 uM measured upto 72 hrs by bright field microscopy. The data set is classed as functional, organism-based.
The test system of data set [16] is Schistosoma mansoni. Briefly: Antischistosomal activity against Schistosoma mansoni couples assessed as worm motility at 100 uM treated for 72 hrs and measured at 192 hrs after drug wash-out by bright field microscopy. The data set is classed as functional.
The test system of data set [17] is Schistosoma mansoni. Briefly: Antischistosomal activity against Schistosoma mansoni couples assessed as worm motility at 100 uM treated for 72 hrs and measured at 144 hrs after drug wash-out by bright field microscopy. In kind it is functional.
Data set [18] deals with Schistosoma mansoni. In words: Antischistosomal activity against Schistosoma mansoni couples assessed as worm motility at 50 uM measured after 72 hrs by bright field microscopy. The data set is classed as functional.
In data set [19] the test system is Schistosoma mansoni. In words: Antischistosomal activity against Schistosoma mansoni infected in mouse assessed as decrease in granuloma formation. The data set is classed as functional. Also noted: scale not given: the % may be the effect or the level left.
Data set [20] deals with Schistosoma mansoni. Briefly: Antischistosomal activity against Schistosoma mansoni couples assessed as worm motility at 100 uM measured after 72 hrs by bright field microscopy. The data set is classed as functional.
Data set [21] deals with Schistosoma mansoni. In words: Antischistosomal activity against Schistosoma mansoni couples assessed as worm motility at 50 uM treated for 72 hrs and measured at 144 hrs after drug wash-out by bright field microscopy. The data set is classed as functional.
Data set [22] concerns Schistosoma mansoni. Briefly: Antischistosomal activity against Schistosoma mansoni infected in mouse assessed as mouse mortality. The data set is classed as functional.
The subject of data set [23] is Schistosoma mansoni. In words: Antischistosomal activity against Schistosoma mansoni couples assessed as worm motility at 25 uM treated for 72 hrs and measured at 192 hrs after drug wash-out by bright field microscopy. In kind it is functional.
Data set [24] has as its system Schistosoma mansoni. In words: Antischistosomal activity against Schistosoma mansoni couples assessed as reduction in pairing stability at 25 to 100 uM treated for 72 hrs and measured at 144 to 192 hrs after drug wash-out by bright field microscopy. Conditions: dose 25-100 µM. In kind it is functional, organism-based.
Data set [25] concerns Schistosoma mansoni. In words: Antischistosomal activity against Schistosoma mansoni couples assessed as worm motility at 25 uM treated for 72 hrs and measured at 144 hrs after drug wash-out by bright field microscopy. In kind it is functional.
The subject of data set [26] is Schistosoma mansoni. In words: Antischistosomal activity against Schistosoma mansoni couples assessed as worm motility at 25 uM measured after 72 hrs by bright field microscopy. The data set is classed as functional.
In data set [27] the test system is Schistosoma mansoni. Briefly: Antischistosomal activity against Schistosoma mansoni couples assessed as worm motility at 50 uM treated for 72 hrs and measured at 192 hrs after drug wash-out by bright field microscopy. The data set is classed as functional.
Data set [28] deals with Schistosoma mansoni. Briefly: Antischistosomal activity against Schistosoma mansoni couples assessed as tegument damage at 100 uM measured upto 72 hrs by bright field microscopy. The data set is classed as functional, organism-based.
For data set [29], the system named is Schistosoma mansoni. Briefly: Antischistosomal activity against Schistosoma mansoni couples assessed as decrease in mating stability <25 uM measured upto 72 hrs by bright field microscopy. In kind it is functional, organism-based.
Data set [30] relates to Schistosoma mansoni. In words: Antischistosomal activity against Schistosoma mansoni couples assessed as decrease in parasite motility at 50 uM measured upto 72 hrs by bright field microscopy. Also noted: scale not given: the % may be the effect or the level left. In kind it is functional.
The test system of data set [31] is Schistosoma mansoni. In words: Antischistosomal activity against Schistosoma mansoni couples assessed as lethality to parasites at 100 uM measured upto 72 hrs by bright field microscopy. In kind it is functional, organism-based.
The test system of data set [32] is Schistosoma mansoni. In words: Antischistosomal activity against Schistosoma mansoni couples assessed as decrease in parasite motility at <25 uM measured upto 72 hrs by bright field microscopy. In kind it is functional, organism-based.
Data set [33] deals with Schistosoma mansoni. In words: Antischistosomal activity against Schistosoma mansoni couples assessed as reduction in pairing stability at 25 uM measured upto 72 hrs by bright field microscopy. In kind it is functional. Further details: scale not given: the % may be the effect or the level left.
Data set [34] has as its system Schistosoma mansoni. Briefly: Antischistosomal activity against Schistosoma mansoni couples assessed as inhibition of eggs production at <25 uM measured upto 72 hrs by bright field microscopy. In kind it is functional, organism-based.

As to `CN(C)CCN1CCN(C(=S)SCc2ccc([N+](=O)[O-])cc2)CC1`, the Activity result in the data set on HepG2 is recorded as “Toxic”; in the data set with LS174T, “Toxic”; in the data set on Schistosoma mansoni [6], 55%. Also, the outcome in the data set on Schistosoma mansoni [1], in the data set on Schistosoma mansoni [2], in the data set on Schistosoma mansoni [3], in the data set with Schistosoma mansoni [4], with Schistosoma mansoni [5] and in the data set with Schistosoma mansoni [7] was Active.
As for `S=C(SCc1ccccc1)n1ccc2ccccc21`, the Activity result was “Non-Toxic” with HepG2, “Non-Toxic” in the data set with LS174T and “>=55%” in the data set on Schistosoma mansoni [6]. Moreover, in the data set with Schistosoma mansoni [8], the result was inactive. Besides, the result in the data set with Schistosoma mansoni [9], with Schistosoma mansoni [10], with Schistosoma mansoni [11], in the data set with Schistosoma mansoni [12], with Schistosoma mansoni [13] and in the data set with Schistosoma mansoni [14] was Active. The result in the data set with Schistosoma mansoni [15] was Active.
Regarding `CCN(CC)C(=S)SSC(=S)N(CC)CC` [DISULFIRAM], the Activity was found to be 76% in the data set with Schistosoma mansoni [16]; 71% with Schistosoma mansoni [17]; 62% in the data set on Schistosoma mansoni [18]; 80% in the data set on Schistosoma mansoni [19]; 56% with Schistosoma mansoni [20]; 75% in the data set on Schistosoma mansoni [21]. Also, the Activity came out at 60% in the data set on Schistosoma mansoni [22]; 67% in the data set on Schistosoma mansoni [23]; 73% in the data set on Schistosoma mansoni [25]; 69% in the data set on Schistosoma mansoni [26]; 84% in the data set on Schistosoma mansoni [27]. In addition, the result with Schistosoma mansoni [24] was inactive.
`CCN(CC)C(=S)SCc1cc([N+](=O)[O-])ccc1O`: the outcome with Schistosoma mansoni [28] and with Schistosoma mansoni [31] was Active. In addition, the outcome with Schistosoma mansoni [29], in the data set on Schistosoma mansoni [32], with Schistosoma mansoni [5], in the data set with Schistosoma mansoni [6] and in the data set on Schistosoma mansoni [34] was inactive. Besides, the Activity in the data set with Schistosoma mansoni [30] is given as more than 60%; in the data set on Schistosoma mansoni [33], “>=90%”; with Schistosoma mansoni [7] it was “>=90%”.
